Structures are written as SMILES. Bounds are passed on as bounds.

This assay deals with T1, FLK-1 receptor (Mus musculus, UniProt P35918).
T1 construct: expressed in transfected cells; host or cells: NIH3T3C7#3 cells (FLK-1 infected)
Kind of assay: ELISA assay to measure kinase activity of FLK-1 receptor in FLK-1/NIH cells. Format: cell-based, murine. To be noted: 50 ng/ml VEGF, read-out: ELISA DATA: FLK-1-(Cell.). The source says:
For purposes of this application, although the nomenclature of the human and murine counterparts of the generic "flk-I" receptor differ, they are, in many respects, interchangeable. The murine receptor, FLK1, and its human counterpart, KDR, share a sequence homology of 93.4% within the intracellular domain. Likewise, murine FLK-I binds human VEGF with the same affinity as mouse VEGF, and accordingly, is activated by the ligand derived from either species. Millauer et al., 1993, Cell 72:835-846; Quinn et al., 1993, Proc. Natl. Acad. Sci. USA 90:7533-7537. FLK-1 also associates with and subsequently tyrosine phosphorylates human RTK substrates (e.g., PLC-γ or p85) when coexpressed in 293 cells (human embryonal kidney fibroblasts).
ELISA Assay To Measure Kinase Activity Of FLK-I Receptor In FLK-I/NIH Cells
An ELISA assay was conducted to measure the kinase activity of the FLK-I receptor and more specifically, the inhibition or activiation of protein tyrosine kinase activity on the FLK-I receptor.
k. N1H3T3C7#3 Cells (FLK-I infected cells);
1. Coat Corning 96-well elisa plates with 1.0 ug per well Cappel Anti-rabbit IgG antibody in 0.1M Na2CO3 pH 9.6. Bring final volume to 150 ul per well. Coat plates overnight at 4° C. Plates can be kept up to two weeks when stored at 4° C.
2. […]
In general terms: An ELISA detects its analyte on a solid surface through an enzyme-linked reagent.

T1 sequence (P35918 20-1345): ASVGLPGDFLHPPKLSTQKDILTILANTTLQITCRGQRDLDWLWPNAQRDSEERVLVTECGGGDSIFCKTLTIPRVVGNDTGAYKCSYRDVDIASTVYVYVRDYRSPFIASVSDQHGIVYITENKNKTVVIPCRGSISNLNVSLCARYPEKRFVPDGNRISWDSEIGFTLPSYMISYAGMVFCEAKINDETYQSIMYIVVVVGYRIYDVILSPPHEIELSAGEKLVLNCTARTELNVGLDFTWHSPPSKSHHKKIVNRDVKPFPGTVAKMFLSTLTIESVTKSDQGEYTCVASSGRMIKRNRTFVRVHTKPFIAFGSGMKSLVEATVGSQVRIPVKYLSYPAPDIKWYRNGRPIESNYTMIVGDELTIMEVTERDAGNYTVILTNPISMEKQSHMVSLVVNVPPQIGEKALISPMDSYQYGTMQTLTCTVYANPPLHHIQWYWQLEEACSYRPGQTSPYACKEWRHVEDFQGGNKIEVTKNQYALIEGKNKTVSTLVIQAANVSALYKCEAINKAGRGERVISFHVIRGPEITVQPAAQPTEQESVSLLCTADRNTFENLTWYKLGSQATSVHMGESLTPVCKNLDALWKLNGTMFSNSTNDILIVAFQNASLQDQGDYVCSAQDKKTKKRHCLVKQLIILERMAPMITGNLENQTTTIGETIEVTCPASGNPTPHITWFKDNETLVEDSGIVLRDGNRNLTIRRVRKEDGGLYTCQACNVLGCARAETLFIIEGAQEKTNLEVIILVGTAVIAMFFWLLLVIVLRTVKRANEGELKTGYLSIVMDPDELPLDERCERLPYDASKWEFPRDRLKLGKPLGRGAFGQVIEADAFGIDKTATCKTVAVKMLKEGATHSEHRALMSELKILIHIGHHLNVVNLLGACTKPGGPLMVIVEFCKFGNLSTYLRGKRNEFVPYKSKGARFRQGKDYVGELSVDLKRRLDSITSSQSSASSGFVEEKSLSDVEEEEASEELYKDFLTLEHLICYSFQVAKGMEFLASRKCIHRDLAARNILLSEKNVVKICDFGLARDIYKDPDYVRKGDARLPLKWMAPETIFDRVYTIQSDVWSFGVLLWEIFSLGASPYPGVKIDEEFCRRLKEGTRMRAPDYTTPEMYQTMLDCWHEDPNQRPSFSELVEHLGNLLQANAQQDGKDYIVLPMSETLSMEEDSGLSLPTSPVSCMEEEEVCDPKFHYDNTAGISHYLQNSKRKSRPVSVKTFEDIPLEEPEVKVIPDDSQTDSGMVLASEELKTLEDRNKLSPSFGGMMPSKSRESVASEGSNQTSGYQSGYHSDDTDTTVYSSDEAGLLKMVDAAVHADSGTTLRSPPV

Consider `Cc1cc(/C=C(\C#N)S(=O)(=O)c2ccccc2)cc(C)c1O` [Compound 748], for which the IC50 was less than 50 µM.

On to `CC(C)c1cc(/C=C(\C#N)S(=O)(=O)c2ccccn2)cc(C(C)C)c1O` [Compound 747], for which the IC50 was more than 50 µM.

(Values after US5891917A, “Certain acrylonitrile-sulfonamide derivatives” (Sugen, Inc., priority 1997, dated 1999).)
